Experiment: Solubility of added 5% CHG in commercial detergent compositions
Type: physicochemical

N=C(NCCCCCCNC(=N)NC(=N)Nc1ccc(Cl)cc1)NC(=N)Nc1ccc(Cl)cc1.O=C(O)[C@H](O)[C@@H](O)[C@H](O)[C@H](O)CO.O=C(O)[C@H](O)[C@@H](O)[C@H](O)[C@H](O)CO [CHG, chlorhexidine gluconate]
insoluble: Solubility of CHG in detergent composition C2 (5% CHG added to C2) | Solubility of CHG in detergent composition C3 (5% CHG added to C3) | Solubility of CHG in detergent composition C6 (5% CHG added to C6)

Reference: patent publication US20210395653A1, “COMPOSITIONS FOR TREATMENT AND METHODS FOR MAKING AND USING THE SAME” (ASP Global Manufacturing GmbH, priority 2018, published 2021)
